# Calls of active or inactive are those of the source. The calls are words filed in the database; no cut-off is given here.
# Legend:
# [1] = molecular target: T1, Tyrosine-protein phosphatase non-receptor type 11 (Homo sapiens, UniProt Q06124); experiment: Inhibition of recombinant human SHP2 PTPase activity (219 to 525 residues) using DIPMUP as substrate preincubated for 30 mins followed by substrate addition and measured after 30 mins by fluorescence based analysis
# T1 sequence (Q06124 whole entry): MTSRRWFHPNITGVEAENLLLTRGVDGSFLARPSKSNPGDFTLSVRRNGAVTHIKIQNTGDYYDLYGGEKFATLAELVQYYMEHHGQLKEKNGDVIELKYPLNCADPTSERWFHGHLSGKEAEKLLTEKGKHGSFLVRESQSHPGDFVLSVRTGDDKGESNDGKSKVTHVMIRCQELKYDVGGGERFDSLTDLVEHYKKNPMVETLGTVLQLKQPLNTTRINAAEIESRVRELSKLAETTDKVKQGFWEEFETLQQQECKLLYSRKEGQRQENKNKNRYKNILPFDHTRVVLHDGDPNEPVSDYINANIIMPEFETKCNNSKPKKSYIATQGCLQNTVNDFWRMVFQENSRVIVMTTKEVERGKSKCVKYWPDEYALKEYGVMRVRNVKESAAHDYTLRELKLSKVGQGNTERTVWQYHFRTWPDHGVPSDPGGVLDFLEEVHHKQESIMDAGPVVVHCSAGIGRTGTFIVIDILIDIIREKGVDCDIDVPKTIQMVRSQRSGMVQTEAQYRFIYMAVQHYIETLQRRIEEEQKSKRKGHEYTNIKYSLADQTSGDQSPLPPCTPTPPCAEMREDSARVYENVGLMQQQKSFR
# [2] = molecular target: T1, Tyrosine-protein phosphatase non-receptor type 11; experiment: Inhibition of full length wild type recombinant human IRS-1 peptide activated SHP2 (1 to 525 residues) using DIPMUP as substrate preincubated for 30 mins followed by substrate addition and measured after 30 mins by fluorescence based analysis
# [3] = Inhibition of full length recombinant human SHP2 E76A mutant (1 to 525 residues) using DIPMUP as substrate preincubated for 30 mins followed by substrate addition and measured after 30 mins by fluorescence based analysis
# MDA-MB-468 = experiment: Antiproliferative activity against human MDA-MB-468 cells assessed as inhibition of cell growth measured after 72 hrs by CCK8 method; format: functional, cell-based; conditions: MDA-MB-468, 72 h
# MV4-11 [4] = experiment: Induction of apoptosis in human MV4-11 cells assessed as viable cells at 5 uM measured after 2 hrs by Annexin V-FITC/7-AAD staining based flow cytometric analysis (reference value: 96.8%); format: functional; conditions: read-out: Activity
# NCI-H358 = experiment: Antiproliferative activity against human NCI-H358 cells assessed as inhibition of cell growth measured after 72 hrs by CCK8 method; format: functional, cell-based; conditions: NCI-H358, 72 h
# MV4-11 [5] = experiment: Induction of apoptosis in human MV4-11 cells assessed as early apoptotic cells at 1.25 uM measured after 4 hrs by Annexin V-FITC/7-AAD staining based flow cytometric analysis (reference value: 2.48%); format: functional
# MV4-11 [6] = experiment: Induction of apoptosis in human MV4-11 cells assessed as early apoptotic cells at 5 uM measured after 4 hrs by Annexin V-FITC/7-AAD staining based flow cytometric analysis (reference value: 2.13%); format: functional
# MV4-11 [7] = experiment: Induction of apoptosis in human MV4-11 cells assessed as necrotic cells at 5 uM measured after 4 hrs by Annexin V-FITC/7-AAD staining based flow cytometric analysis (reference value: 0.041%); format: functional
# MV4-11 [8] = experiment: Induction of apoptosis in human MV4-11 cells assessed as necrotic cells at 5 uM measured after 2 hrs by Annexin V-FITC/7-AAD staining based flow cytometric analysis (reference value: 0.068%); format: functional
# MV4-11 [9] = experiment: Induction of apoptosis in human MV4-11 cells assessed as late apoptotic cells at 1.25 uM measured after 4 hrs by Annexin V-FITC/7-AAD staining based flow cytometric analysis (reference value: 1.58%); format: functional
# MV4-11 [10] = experiment: Induction of apoptosis in human MV4-11 cells assessed as necrotic cells at 2.5 uM measured after 4 hrs by Annexin V-FITC/7-AAD staining based flow cytometric analysis (reference value: 0.041%); format: functional
# MV4-11 [11] = experiment: Induction of apoptosis in human MV4-11 cells assessed as early apoptotic cells at 5 uM measured after 1 hrs by Annexin V-FITC/7-AAD staining based flow cytometric analysis (reference value: 2.13%); format: functional
# [12] = molecular target: Tyrosine-protein phosphatase non-receptor type 6 (Homo sapiens, UniProt P29350); experiment: Inhibition of full length recombinant human SHP1 (1 to 570 residues) using DIPMUP as substrate preincubated for 30 mins followed by substrate addition and measured after 30 mins by fluorescence based analysis
# Sequence of Tyrosine-protein phosphatase non-receptor type 6 (P29350 whole entry, the tested form may be a part): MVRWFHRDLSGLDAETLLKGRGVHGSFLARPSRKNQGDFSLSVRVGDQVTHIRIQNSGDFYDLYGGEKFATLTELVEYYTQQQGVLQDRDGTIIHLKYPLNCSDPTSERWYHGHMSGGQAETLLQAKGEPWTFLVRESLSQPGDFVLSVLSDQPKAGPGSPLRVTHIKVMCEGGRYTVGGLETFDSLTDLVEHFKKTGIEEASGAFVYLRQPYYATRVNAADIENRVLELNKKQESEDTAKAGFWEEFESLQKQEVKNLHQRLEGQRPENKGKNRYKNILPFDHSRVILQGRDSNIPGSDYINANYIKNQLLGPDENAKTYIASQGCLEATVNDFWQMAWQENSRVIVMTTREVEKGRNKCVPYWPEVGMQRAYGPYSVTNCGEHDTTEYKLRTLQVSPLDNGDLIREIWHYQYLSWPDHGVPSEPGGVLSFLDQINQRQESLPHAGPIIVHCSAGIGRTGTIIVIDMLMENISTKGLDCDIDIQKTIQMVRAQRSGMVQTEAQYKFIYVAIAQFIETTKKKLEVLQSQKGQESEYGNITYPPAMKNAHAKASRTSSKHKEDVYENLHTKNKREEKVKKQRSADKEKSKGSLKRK
# MV4-11 [13] = experiment: Induction of apoptosis in human MV4-11 cells assessed as early apoptotic cells at 5 uM measured after 4 hrs by Annexin V-FITC/7-AAD staining based flow cytometric analysis (reference value: 2.48%); format: functional
# [14] = molecular target: T2, Tyrosine-protein phosphatase non-receptor type 11 (Homo sapiens) (UniProt Q06124); experiment: Inhibition of SHP2 in human NCI-H358 cells assessed as reduction in Akt phosphorylation level at upto 20 uM measured after 8 hrs by Western blot analysis; format: cell-based
# T2 sequence (whole entry): T1 sequence (Q06124 whole entry)
# MV4-11 [15] = experiment: Induction of apoptosis in human MV4-11 cells assessed as necrotic cells at 1.25 uM measured after 4 hrs by Annexin V-FITC/7-AAD staining based flow cytometric analysis (reference value: 0.041%); format: functional
# MV4-11 [16] = experiment: Induction of apoptosis in human MV4-11 cells assessed as late apoptotic cells at 5 uM measured after 2 hrs by Annexin V-FITC/7-AAD staining based flow cytometric analysis (reference value: 0.98%); format: functional
# MV4-11 [17] = experiment: Induction of apoptosis in human MV4-11 cells assessed as viable cells at 2.5 uM measured after 4 hrs by Annexin V-FITC/7-AAD staining based flow cytometric analysis (reference value: 95.9%); format: functional; conditions: read-out: Activity
# MV4-11 [18] = experiment: Induction of apoptosis in human MV4-11 cells assessed as viable cells at 5 uM measured after 4 hrs by Annexin V-FITC/7-AAD staining based flow cytometric analysis (reference value: 95.9%); format: functional; conditions: read-out: Activity
# [19] = molecular target: T2, Tyrosine-protein phosphatase non-receptor type 11 (Homo sapiens); experiment: Inhibition of SHP2 in human MV4-11 cells assessed as reduction in Akt phosphorylation level at upto 20 uM measured after 4 hrs by Western blot analysis; format: cell-based
# MV4-11 [20] = experiment: Induction of apoptosis in human MV4-11 cells assessed as early apoptotic cells at 2.5 uM measured after 4 hrs by Annexin V-FITC/7-AAD staining based flow cytometric analysis (reference value: 2.48%); format: functional
# MV4-11 [21] = experiment: Induction of apoptosis in human MV4-11 cells assessed as late apoptotic cells at 5 uM measured after 4 hrs by Annexin V-FITC/7-AAD staining based flow cytometric analysis (reference value: 0.98%); format: functional
# MV4-11 [22] = experiment: Induction of apoptosis in human MV4-11 cells assessed as viable cells at 5 uM measured after 4 hrs by Annexin V-FITC/7-AAD staining based flow cytometric analysis (reference value: 96.8%); format: functional; conditions: read-out: Activity
# MV4-11 [23] = experiment: Induction of apoptosis in human MV4-11 cells assessed as viable cells at 5 uM measured after 1 hrs by Annexin V-FITC/7-AAD staining based flow cytometric analysis (reference value: 96.8%); format: functional; conditions: read-out: Activity
compound,measurement,setting,value
C[C@@H]1OCC2(CCN(c3nnc(Sc4cccc(Cl)c4Cl)s3)CC2)[C@@H]1N,IC50,[1],> 50 µM
same,IC50,[2],0.25 µM
same,IC50,[3],1.38 µM
same,IC50,MDA-MB-468,14.6 µM
same,viability at 5 µM,MV4-11 [4],80.9%
same,IC50,NCI-H358,12 µM
same,Activity,MV4-11 [5],2.04%
same,Activity,MV4-11 [6],10.8%
same,Activity,MV4-11 [7],1.55%
same,Activity,MV4-11 [8],1.17%
same,Activity,MV4-11 [9],1.93%
same,Activity,MV4-11 [10],0.076%
same,Activity,MV4-11 [11],4.74%
same,IC50,[12],> 50 µM
same,Activity,MV4-11 [13],8.42%
same,inhibition,[14],Active
same,Activity,MV4-11 [15],0.12%
same,Activity,MV4-11 [16],7.03%
same,viability at 2.5 µM,MV4-11 [17],96.7%
same,viability at 5 µM,MV4-11 [18],84.1%
same,inhibition,[19],Active
same,Activity,MV4-11 [20],2.09%
same,Activity,MV4-11 [21],7.78%
same,viability at 5 µM,MV4-11 [22],80%
same,viability at 5 µM,MV4-11 [23],90%

# — ChEMBL document CHEMBL5620403, “Design, synthesis, activity and molecular dynamics studies of 1,3,4-thiadiazole derivatives as selective allosteric inhibitors of SHP2 for the treatment of cancer” (Eur J Med Chem, 2023)
